Reference: US7064122B2, “Pancreatic lipase inhibitor compounds, their synthesis and use” (OSI Pharmaceuticals, Inc., priority 2001, dated 2006)

Target: T1, type VI-S porcine pancreatic lipase (Sus scrofa, UniProt P00591)
T1 construct: purchased Sigma type VI-S (catalogue number not given)
T1 sequence (P00591 1-450): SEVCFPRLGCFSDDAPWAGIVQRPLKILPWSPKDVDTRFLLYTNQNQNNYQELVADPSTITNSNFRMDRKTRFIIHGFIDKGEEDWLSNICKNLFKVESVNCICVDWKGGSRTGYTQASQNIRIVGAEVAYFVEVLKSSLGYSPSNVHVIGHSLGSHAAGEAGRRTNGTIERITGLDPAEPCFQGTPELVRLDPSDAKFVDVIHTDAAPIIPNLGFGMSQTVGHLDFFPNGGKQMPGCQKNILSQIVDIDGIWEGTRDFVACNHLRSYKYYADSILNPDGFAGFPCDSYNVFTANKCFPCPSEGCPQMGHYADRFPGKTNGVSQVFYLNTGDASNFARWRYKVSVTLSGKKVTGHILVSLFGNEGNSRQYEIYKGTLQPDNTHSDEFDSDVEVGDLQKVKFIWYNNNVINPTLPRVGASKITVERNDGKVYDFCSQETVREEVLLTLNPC
Assay: Pancreatic lipase assay (pH-stat titration, triolein substrate)
Assay type: biochemical
Design: Ymax: unit not given here
Conditions: 7.0 nM lipase, 700 nM inhibitor, pH 8.0; Ymax of the fit Y=Ymax*(1-exp(-k*X))
Procedure: The use of a pancreatic lipase assay has been described in the literature (Hadvary, P. et al. Biochem. J. (1988) 256: 357-361; Hadvary, P. et al. Biochem. J. (1991) 266:2021-2027). Pancreatic lipase activity was measured using a 718 Stat Titrino (Brinkmann) programmed to maintain a pH of 8.0 using 0.1 N NaOH. The substrate mixture (pH 8) contained 1 mM taurochenodeoxycholate (Sigma), 9 mM taurodeoxycholate (Sigma), 0.1 mM cholesterol (Sigma), 1 mM phosphatidylcholine (Sigma), 1.5% BSA, 2 mM Tris base, 100 mM NaCl, 10 mM CaCl2, and 3% triolein (Sigma). The mixture (5 mL) was emulsified via sonication at room temperature, and added to the titration vessel with rapid stirring. The Stat Titrino was turned on and lipase (7.0 nM type VI-S porcine pancreatic lipase (Sigma) dissolved in PBS) was added to the vessel. After 10 min, inhibitor (700 nM dissolved in 100% DMSO) was added and the reaction continued for an additional 12.5 min. The k values were determined for the 12.5 min after the addition of the inhibitor using a one phase exponential association equation, Y=Ymax*(1−exp(−k*X)), k values for lipase alone were 0.0004±0.0001 sec. The k values for compounds disclosed herein are >0.0004±0.0001 sec.

| Compound | Ymax |
| --- | --- |
| CCCCCCCCNc1nc2sc(C(=O)N(CCCC)CCCC)c(C)c2c(=O)o1 [Entry 36, 5-Methyl-2-octylamino-4-oxo-4H-thieno[2,3-d][1,3]oxazine-6-carboxylic acid dibutylamide] | 0.616 |
| CCCCCCCCNc1nc2sc(C(=O)NC3CCCCC3)c(C)c2c(=O)o1 [Entry 38, 5-Methyl-2-octylamino-4-oxo-4H-thieno[2,3-d][1,3]oxazine-6-carboxylic acid cyclohexylamide] | 0.045 |

Same assay, conditions: 7.0 nM lipase, 700 nM inhibitor, pH 8.0; k fitted for the 12.5 min after inhibitor addition, Y=Ymax*(1-exp(-k*X))

| Compound | k |
| --- | --- |
| 2-Hexadecyloxy-5-methyl-4-oxo-4H-thieno[2,3-d][1,3]oxazine-6-carboxylic acid benzyl ester [Entry 7] | 0.779 10-3.s-1 |
| CCCCCCCCOc1nc2sc(C(=O)OCc3ccccc3)c(C)c2c(=O)o1 [Entry 5, 5-Methyl-2-octyloxy-4-oxo-4H-thieno[2,3-d][1,3]oxazine-6-carboxylic acid benzyl ester] | 0.649 10-3.s-1 |
| CCCCCCCOc1nc2sc(C(=O)OCc3ccccc3)c(C)c2c(=O)o1 [Entry 8, 2-Heptyloxy-5-methyl-4-oxo-4H-thieno[2,3-d][1,3]oxazine-6-carboxylic acid benzyl ester] | 1.052 10-3.s-1 |
| CCCCCCCOC(=O)c1sc2nc(OCCCCCCC)oc(=O)c2c1C [Entry 10, 5-Methyl-2-heptyloxy-4-oxo-4H-thieno[2,3-][1,3]oxazine-6-carboxylic acid heptyl ester] | 1.349 10-3.s-1 |
| CCCCCCCCOc1nc2sc(C(=O)O)c(C)c2c(=O)o1 [Entry 11, 5-Methyl-2-octyloxy-4-oxo-4H-thieno[2,3-d][1,3]oxazine-6-carboxylic acid] | 0.547 10-3.s-1 |
| CCCCCCCCNC(=O)N(CCCCCCCC)c1nc2sc(C(=O)OCc3ccccc3)c(C)c2c(=O)o1 [Entry 13, 2-(1,3-Dioctyl-ureido)-5-methyl-4-oxo-4H-thieno[2,3-d][1,3]oxazine-6-carboxylic acid benzyl ester] | 0.414 10-3.s-1 |
| CCCCCCCNC(=O)N(CCCCCCC)c1nc2sc(C(=O)OCc3ccccc3)c(C)c2c(=O)o1 [Entry 14, 2-(1,3-Diheptyl-ureido)-5-methyl-4-oxo-4H-thieno[2,3-d][1,3]oxazine-6-carboxylic acid benzyl ester] | 0.459 10-3.s-1 |
| CCCCCCCCNC(=O)c1sc2nc(OCCCCCCCC)oc(=O)c2c1C [Entry 15, 5-Methyl-2-octyloxy-4-oxo-4H-thieno[2,3-d][1,3]oxazine-6-carboxylic acid octylamide] | 1.548 10-3.s-1 |
| CCCCCCCNc1nc2sc(C(=O)OCc3ccccc3)c(C)c2c(=O)o1 [Entry 17, 2-Heptylamino-5-methyl-4-oxo-4H-thieno[2,3-d][1,3]oxazine-6-carboxylic acid benzyl ester] | 7.74 10-3.s-1 |
| CCCCCCCCOC(=O)c1sc2nc(Nc3ccc(Oc4ccccc4)cc3)oc(=O)c2c1C [Entry 19, 5-Methyl-4-oxo-2-(4-phenoxy-phenylamino)-4H-thieno[2,3-d][1,3]oxazine-6-carboxylic acid octyl ester] | 0.981 10-3.s-1 |
| CCCCCCCCNc1nc2sc(C(=O)OCCCCCCCC)c(C)c2c(=O)o1 [Entry 20, 5-Methyl-2-octylamino-4-oxo-4H-thieno[2,3-d][1,3]oxazine-6-carboxylic acid octyl ester] | 0.922 10-3.s-1 |
| CCCCCCCCNc1nc2sc(C(=O)NCc3ccccc3)c(C)c2c(=O)o1 [Entry 21, 5-Methyl-2-octylamino-4-oxo-4H-thieno[2,3-d][1,3]oxazine-6-carboxylic acid benzylamide] | 1.079 10-3.s-1 |
| CCCCCCCCNc1nc2sc(C(=O)N(C)C)c(C)c2c(=O)o1 [Entry 22, 5-Methyl-2-octylamino-4-oxo-4H-thieno[2,3-d][1,3]oxazine-6-carboxylic acid dimethylamide] | 0.537 10-3.s-1 |
| CCCCCCCCOc1nc2scc(C)c2c(=O)o1 [Entry 23, 5-Methyl-2-octyloxy-thieno[2,3-d][1,3]oxazin-4-one] | 0.893 10-3.s-1 |
| CCCCCCCCNc1nc2sc(C(=O)NCCCCCC)c(C)c2c(=O)o1 [Entry 27, 5-Methyl-2-octylamino-4-oxo-4H-thieno[2,3-d][1,3]oxazine-6-carboxylic acid hexylamide] | 2.577 10-3.s-1 |
| CCCCCCCCCCNC(=O)c1sc2nc(NCCCCCCCC)oc(=O)c2c1C [Entry 28, 5-Methyl-2-octylamino-4-oxo-4H-thieno[2,3-d][1,3]oxazine-6-carboxylic acid decylamide] | 0.998 10-3.s-1 |
| CCCCCCCCCCCCNC(=O)c1sc2nc(NCCCCCCCC)oc(=O)c2c1C [Entry 29, 5-Methyl-2-octylamino-4-oxo-4H-thieno[2,3-d][1,3]oxazine-6-carboxylic acid dodecylamide] | 0.797 10-3.s-1 |

| Compound | k |
| --- | --- |
| CCCCCCCCCCCCCCCCNC(=O)c1sc2nc(NCCCCCCCC)oc(=O)c2c1C [Entry 30, 5-Methyl-2-octylamino-4-oxo-4H-thieno[2,3-d][1,3]oxazine-6-carboxylic acid hexadecylamide] | 0.433 10-3.s-1 |
| CCCCCCCCNc1nc2sc(C(=O)NCCCC)c(C)c2c(=O)o1 [Entry 32, 5-Methyl-2-octylamino-4-oxo-4H-thieno[2,3-d][1,3]oxazine-6-carboxylic acid butylamide] | 2.447 10-3.s-1 |
| CCCCCCCCNc1nc2sc(C(=O)NCC)c(C)c2c(=O)o1 [Entry 33, 5-Methyl-2-octylamino-4-oxo-4H-thieno[2,3-d][1,3]oxazine-6-carboxylic acid ethylamide] | 0.547 10-3.s-1 |
| CCCCCCCCNc1nc2sc(C(=O)NCc3ccccn3)c(C)c2c(=O)o1 [Entry 34, 5-Methyl-2-octylamino-4-oxo-4H-thieno[2,3-d][1,3]oxazine-6-carboxylic acid (pyridin-2-ylmethyl)amide] | 0.864 10-3.s-1 |
| CCCCCCCCNc1nc2sc(C(=O)N(CCCC)CCCC)c(C)c2c(=O)o1 [Entry 36, 5-Methyl-2-octylamino-4-oxo-4H-thieno[2,3-d][1,3]oxazine-6-carboxylic acid dibutylamide] | 0.146 10-3.s-1 |
| CCCCCCCCNc1nc2sc(C(=O)NC3CCCCC3)c(C)c2c(=O)o1 [Entry 38, 5-Methyl-2-octylamino-4-oxo-4H-thieno[2,3-d][1,3]oxazine-6-carboxylic acid cyclohexylamide] | 2.173 10-3.s-1 |
| CCCCCCCCNc1nc2sc(C(=O)N3CCN(Cc4ccccc4)CC3)c(C)c2c(=O)o1 [Entry 40, 6-(4-Benzyl-piperazine-1-carbonyl)-5-methyl-2-octylamino-thieno[2,3-d][1,3]oxazin-4-one] | 0.110 10-3.s-1 |
| CCCCCCCCNc1nc2sc(C(=O)NCCCOc3ccccc3)c(C)c2c(=O)o1 [Entry 44, 5-Methyl-2-octylamino-4-oxo-4H-thieno[2,3-d][1,3]oxazine-6-carboxylic acid (3-phenoxy-propyl)-amide] | 1.667 10-3.s-1 |
| CCCCCCCCNc1nc2sc(C(=O)NC(CCCC)CCCC)c(C)c2c(=O)o1 [Entry 45, 5-Methyl-2-octylamino-4-oxo-4H-thieno[2,3-d][1,3]oxazine-6-carboxylic acid (1-butyl-pentyl)-amide] | 0.770 10-3.s-1 |
| CCCCCCCCNc1nc2sc(C(=O)NCCCN(C)C)c(C)c2c(=O)o1 [Entry 46] | 0.062 10-3.s-1 |
| CCCCCCCCNc1nc2sc(C(=O)N(C)Cc3cccc(C)n3)c(C)c2c(=O)o1 [Entry 49, 5-Methyl-2-octylamino-4-oxo-4H-thieno[2,3-d][1,3]oxazine-6-carboxylic acid methyl-(6-methyl-pyridin-2-ylmethyl)-amide] | 0.022 10-3.s-1 |
| CCCCCCCCNc1nc2sc(C(=O)NCCc3cccnc3)c(C)c2c(=O)o1 [Entry 50, 5-Methyl-2-octylamino-4-oxo-4H-thieno[2,3-d][1,3]oxazine-6-carboxylic acid (2-pyridin-3-yl-ethyl)-amide] | 0.719 10-3.s-1 |
| CCCCCCCCNc1nc2sc(C(=O)N(CC)CCc3ccccn3)c(C)c2c(=O)o1 [Entry 51, 5-Methyl-2-octylamino-4-oxo-4H-thieno[2,3-d][1,3]oxazine-6-carboxylic acid ethyl-(2-pyridin-2-yl-ethyl)-amide] | 0.012 10-3.s-1 |
| CCCCCCCCNc1nc2sc(C(=O)NCc3ccco3)c(C)c2c(=O)o1 [Entry 52, 5-Methyl-2-octylamino-4-oxo-4H-thieno[2,3-d][1,3]oxazine-6-carboxylic acid (furan-2-ylmethyl)-amide] | 1.257 10-3.s-1 |
| CCCCCCCCNc1nc2sc(C(=O)N3CCN(CCN4CCCCC4)CC3)c(C)c2c(=O)o1 [Entry 53, 5-Methyl-2-octylamino-6-[4-(2-piperidin-1-yl-ethyl)-piperazine-1-carbonyl]-thieno[2,3-d][1,3]oxazin-4-one] | 0.166 10-3.s-1 |
| CCCCCCCCNc1nc2sc(C(=O)NCC(C)C)c(C)c2c(=O)o1 [Entry 54, 5-Methyl-2-octylamino-4-oxo-4H-thieno[2,3-d][1,3]oxazine-6-carboxylic acid isobutyl-amide] | 0.702 10-3.s-1 |
